PMC5496578 (Beilstein Journal of Organic Chemistry, 2017)
Like-named read-outs stand apart in the source and are kept apart here.

What was measured:
human placental 17β-HSD1 [1] = target: T1, human placental 17β-HSD1 (Homo sapiens, UniProt P14061); design: method as in PMID 26476182, PMID 27424610; conditions: precursors marked with asterisk; cited from earlier work
T1 sequence (P14061 1-328): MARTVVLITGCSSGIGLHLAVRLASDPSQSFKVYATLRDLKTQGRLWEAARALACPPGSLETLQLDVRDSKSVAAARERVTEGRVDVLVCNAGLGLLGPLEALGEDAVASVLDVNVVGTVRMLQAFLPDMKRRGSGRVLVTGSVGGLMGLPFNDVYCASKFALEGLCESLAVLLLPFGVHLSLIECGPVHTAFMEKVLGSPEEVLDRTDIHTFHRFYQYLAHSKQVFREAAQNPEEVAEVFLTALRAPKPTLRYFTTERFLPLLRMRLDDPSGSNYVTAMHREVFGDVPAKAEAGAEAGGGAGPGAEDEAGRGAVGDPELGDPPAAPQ

human placental 17β-HSD1 [2] = target: T1, human placental 17β-HSD1; assay: in vitro radiosubstrate incubation, 17β-HSD1 inhibition (estrone to 17β-estradiol conversion); assay type: biochemical; conditions: for remaining activity at 10 µM: read-out: Relative conversion ± SD
Procedure: Determination of 17β-HSD1 inhibition
The inhibitory effects exerted on 17β-HSD1 activity by the newly synthesized conjugates were determined via an in vitro radiosubstrate incubation method described in detail earlier.[1]
Radiolabeled Chemicals (St. Louis, MO, USA).
NADPH cofactor, other chemicals and solvents of analytical grade purity were purchased from Sigma (St. Louis, MO, USA) and Fluka (Buchs, Switzerland).
Kieselgel-G TLC layers (Si 254 F, 0.25 mm thick) were obtained from Merck (Darmstadt, Germany). Human term placenta specimens were collected and used with the ethical approval of the Institutional Human Investigation Review Board.
Human term placenta specimens were combined and homogenized with an Ultra-Turrax in 0.1 M HEPES buffer (pH 7.3) containing 1 mM EDTA and 1 mM dithiotreitol, and the cytosol was obtained by fractionated centrifugation. The substrate tritium- […]
propylene glycol in HEPES buffer solution, whereas the test compounds were applied in 10 µl of dimethyl sulfoxide solution. (These organic solvent contents in the 200 µl […]
activity substantially.) Cofactor NADPH was used in excess concentration (100 µM).
The enzymatic reaction was started by the addition of the cytosol aliquots. Incubation was carried out at 37 °C for 2.5 min and was then stopped by the addition of ethyl […]
were added to the samples. The two steroids were separated by TLC with the solvent system dichloromethane/diisopropyl ether/ethyl acetate (70:15:15 v/v) and UV spots were used to trace the separated steroids. Spots were cut out and the radioactivity of […]
counting. Test compounds were applied at 10 µM and their inhibitory effects were expressed by relative conversions, in comparison with the transformation measured in the noninhibited control incubation. Two measurements were performed for each test compound and the mean was calculated. The IC50 values (the inhibitor concentration which decreases the enzyme activity to 50%) were determined for the […]
In these cases, conversions were measured at different concentrations in the interval 0.001–50 µM. IC50 results were calculated by using unweighted iterative least-squares logistic curve-fitting by means of the “absolute IC50 calculation” function of GraphPad Prism 4.0. The IC50 of unlabeled […]
1 Bacsa, I.; Jójárt, R.; Schneider, G.; Wölfling, J.; Maróti, P.; Herman, B. E.; Szécsi,
2 Szabó, J.; Jerkovics N.; Schneider G.; Wölfling J.; Bózsity N.; Minorics R.; Zupkó I.;

In the case of COc1cc2c(cc1I)[C@H]1CC[C@@]3(C)C(=O)CC[C@H]3[C@@H]1CC2 [Compound 4], the IC50 (human placental 17β-HSD1 [1]) is listed as greater than 10000 nM.

In the case of COc1ccc2c(c1I)CC[C@@H]1[C@@H]2CC[C@@]2(C)C(=O)CC[C@@H]12 [Compound 6], the IC50 (human placental 17β-HSD1 [1]) is listed as 560 nM.

For C[C@@]12CC[C@@H]3c4cc(C#Cc5ccccc5)c(O)cc4CC[C@H]3[C@@H]1CCC2=O [Compound 8a], the IC50 (human placental 17β-HSD1 [2]) was 150 nM.

Cc1ccc(C#Cc2cc3c(cc2O)CC[C@@H]2[C@@H]3CC[C@@]3(C)C(=O)CC[C@@H]23)cc1 [Compound 8b] showed an IC50 (human placental 17β-HSD1 [2]) of 1400 nM.

COc1ccc(C#Cc2cc3c(cc2O)CC[C@@H]2[C@@H]3CC[C@@]3(C)C(=O)CC[C@@H]23)cc1 [Compound 8c] showed an IC50 (human placental 17β-HSD1 [2]) of 230 nM.

With C[C@@]12CC[C@@H]3c4cc(C#Cc5ccc(F)cc5)c(O)cc4CC[C@H]3[C@@H]1CCC2=O [Compound 8d] the IC50 (human placental 17β-HSD1 [2]) was 300 nM.

Work on C[C@@]12CC[C@@H]3c4cc(C#Cc5ccc(C(F)(F)F)cc5)c(O)cc4CC[C@H]3[C@@H]1CCC2=O [Compound 8e] yielded an IC50 (human placental 17β-HSD1 [2]) of 930 nM.

In the case of COc1cc2c(cc1C#Cc1ccccc1)[C@H]1CC[C@@]3(C)C(=O)CC[C@H]3[C@@H]1CC2 [Compound 9a], the remaining activity at 10 µM (human placental 17β-HSD1 [2]) is reported as 88 ± 12%.

Work on COc1cc2c(cc1C#Cc1ccc(C)cc1)[C@H]1CC[C@@]3(C)C(=O)CC[C@H]3[C@@H]1CC2 [Compound 9b] yielded a remaining activity at 10 µM (human placental 17β-HSD1 [2]) of 84 ± 5%.

COc1ccc(C#Cc2cc3c(cc2OC)CC[C@@H]2[C@@H]3CC[C@@]3(C)C(=O)CC[C@@H]23)cc1 [Compound 9c] showed a remaining activity at 10 µM (human placental 17β-HSD1 [2]) of 85 ± 1%.

COc1cc2c(cc1C#Cc1ccc(F)cc1)[C@H]1CC[C@@]3(C)C(=O)CC[C@H]3[C@@H]1CC2 [Compound 9d] gave a remaining activity at 10 µM (human placental 17β-HSD1 [2]) of 94 ± 5%.

Compound COc1cc2c(cc1C#Cc1ccc(C(F)(F)F)cc1)[C@H]1CC[C@@]3(C)C(=O)CC[C@H]3[C@@H]1CC2 [Compound 9e] has a remaining activity at 10 µM (human placental 17β-HSD1 [2]) of 76 ± 1%.

With C[C@@]12CC[C@@H]3c4ccc(O)c(C#Cc5ccccc5)c4CC[C@H]3[C@@H]1CCC2=O [Compound 10a] the remaining activity at 10 µM (human placental 17β-HSD1 [2]) was 92 ± 15%.

Work on Cc1ccc(C#Cc2c(O)ccc3c2CC[C@@H]2[C@@H]3CC[C@@]3(C)C(=O)CC[C@@H]23)cc1 [Compound 10b] yielded a remaining activity at 10 µM (human placental 17β-HSD1 [2]) of 89 ± 0.4%.

For COc1ccc(C#Cc2c(O)ccc3c2CC[C@@H]2[C@@H]3CC[C@@]3(C)C(=O)CC[C@@H]23)cc1 [Compound 10c], the remaining activity at 10 µM (human placental 17β-HSD1 [2]) was 91 ± 2%.

In the case of C[C@@]12CC[C@@H]3c4ccc(O)c(C#Cc5ccc(F)cc5)c4CC[C@H]3[C@@H]1CCC2=O [Compound 10d], the remaining activity at 10 µM (human placental 17β-HSD1 [2]) is reported as 96 ± 7%.

For C[C@@]12CC[C@@H]3c4ccc(O)c(C#Cc5ccc(C(F)(F)F)cc5)c4CC[C@H]3[C@@H]1CCC2=O [Compound 10e], the remaining activity at 10 µM (human placental 17β-HSD1 [2]) was 85 ± 1%.

COc1ccc2c(c1C#Cc1ccccc1)CC[C@@H]1[C@@H]2CC[C@@]2(C)C(=O)CC[C@@H]12 [Compound 11a] showed a remaining activity at 10 µM (human placental 17β-HSD1 [2]) of 92 ± 12%.

Compound COc1ccc2c(c1C#Cc1ccc(C)cc1)CC[C@@H]1[C@@H]2CC[C@@]2(C)C(=O)CC[C@@H]12 [Compound 11b] has a remaining activity at 10 µM (human placental 17β-HSD1 [2]) of 52 ± 12%.

With COc1ccc(C#Cc2c(OC)ccc3c2CC[C@@H]2[C@@H]3CC[C@@]3(C)C(=O)CC[C@@H]23)cc1 [Compound 11c] the remaining activity at 10 µM (human placental 17β-HSD1 [2]) was 83 ± 8%.

In the case of COc1ccc2c(c1C#Cc1ccc(F)cc1)CC[C@@H]1[C@@H]2CC[C@@]2(C)C(=O)CC[C@@H]12 [Compound 11d], the remaining activity at 10 µM (human placental 17β-HSD1 [2]) is reported as 83 ± 1%.

COc1ccc2c(c1C#Cc1ccc(C(F)(F)F)cc1)CC[C@@H]1[C@@H]2CC[C@@]2(C)C(=O)CC[C@@H]12 [Compound 11e] gave a remaining activity at 10 µM (human placental 17β-HSD1 [2]) of 79 ± 3%.

In the case of COc1ccc(-c2cc3cc4c(cc3o2)CC[C@@H]2[C@@H]4CC[C@@]3(C)C(=O)CC[C@@H]23)cc1 [Compound 12], the remaining activity at 10 µM (human placental 17β-HSD1 [2]) is reported as 92 ± 2%.

Work on COc1ccc(/C=C\c2cc3c(cc2OC)CC[C@@H]2[C@@H]3CC[C@@]3(C)C(=O)CC[C@@H]23)cc1 [Compound 13] yielded a remaining activity at 10 µM (human placental 17β-HSD1 [2]) of 70 ± 6%.

For COc1ccc(-c2cc3c4c(ccc3o2)[C@H]2CC[C@@]3(C)C(=O)CC[C@H]3[C@@H]2CC4)cc1 [Compound 14], the remaining activity at 10 µM (human placental 17β-HSD1 [2]) was 102 ± 6%.

For COc1ccc(/C=C/c2c(OC)ccc3c2CC[C@@H]2[C@@H]3CC[C@@]3(C)C(=O)CC[C@@H]23)cc1 [Compound 15], the remaining activity at 10 µM (human placental 17β-HSD1 [2]) was 80 ± 12%.

For COc1ccc(CCc2cc3c(cc2O)CC[C@@H]2[C@@H]3CC[C@@]3(C)C(=O)CC[C@@H]23)cc1 [Compound 16], the IC50 (human placental 17β-HSD1 [2]) was 470 nM.

Work on COc1ccc(CCc2cc3c(cc2OC)CC[C@@H]2[C@@H]3CC[C@@]3(C)C(=O)CC[C@@H]23)cc1 [Compound 17] yielded a remaining activity at 10 µM (human placental 17β-HSD1 [2]) of 63 ± 8%.

COc1ccc(CCc2c(O)ccc3c2CC[C@@H]2[C@@H]3CC[C@@]3(C)C(=O)CC[C@@H]23)cc1 [Compound 18] gave a remaining activity at 10 µM (human placental 17β-HSD1 [2]) of 98 ± 3%.

COc1ccc(CCc2c(OC)ccc3c2CC[C@@H]2[C@@H]3CC[C@@]3(C)C(=O)CC[C@@H]23)cc1 [Compound 19] gave a remaining activity at 10 µM (human placental 17β-HSD1 [2]) of 94 ± 1%.
